# Experimental data as given in US6753322B2, “2-aminocarbonyl-9H-purine derivatives” (Pfizer Inc, priority 2000, dated 2004).
# Tested on: neutrophils activated by fMLP
# Assay: superoxide production from neutrophils activated by fMLP
# Format: cell-based
# Conditions: Neutrophil; concentration giving 50% inhibition of fMLP-induced superoxide production compared to control response; human peripheral blood neutrophils, cytochalasin B priming, adenosine deaminase present, cytochrome C reduction readout
# Method: This is evaluated by determining the compound profile in an assay where superoxide production was measured from neutrophils activated by fMLP. Neutrophils were isolated from human peripheral blood using dextran sedimentation followed by centrifugation through Ficoll-Hypaque solution. Any contaminating erythrocytes in the granulocyte pellet were removed by lysis with ice-cold distilled water. Superoxide production from the neutrophils was induced by fMLP in the presence of a priming concentration of cytochalasin B. Adenosine deaminase was included in the assay to remove any endogenously produced adenosine that might suppress superoxide production. The effect of the compound on the fMLP-induced response was monitored colorometrically from the reduction of cytochrome C within the assay buffer. The potency of the compounds was assessed by the concentration giving 50% inhibition (IC50) compared to the control response to fMLP.
row,Compound,IC50
1,"CCNC(=O)[C@H]1O[C@@H](n2cnc3c(NCC(c4ccccc4)c4ccccc4)nc(C(=O)NCCNC(=O)NCCN(C(C)C)C4CCCCC4)nc32)[C@H](O)[C@@H]1O [Example 7, N-(2-{[({2-[Cyclohexyl(isopropyl)amino]ethyl}amino)carbonyl]amino}ethyl)-6-[(2,2-diphenylethyl)amino]-9-{(2R,3R,4S,5S)-5-[(ethylamino)carbonyl]-3,4-dihydroxytetrahydro-2-furanyl}-9H-purine-2carboxamide]",< 100 nM
2,"CCNC(=O)[C@H]1O[C@@H](n2cnc3c(NCC(c4cccc(C)c4)c4cccc(C)c4)nc(C(=O)NCCNC(=O)NCCN(C(C)C)C(C)C)nc32)[C@H](O)[C@@H]1O [Example 30, 6-{[2,2-Bis(3-methylphenyl)ethyl]amino}-N-{2-[({[2-(diisopropylamino)ethyl]amino}carbonyl)-amino]ethyl}-9-{(2R,3R,4S,5S)-5-[(ethylamino)carbonyl]-3,4-dihydroxytetrahydro-2-furanyl}-9H-purine-2-carboxamide]",< 100 nM
3,CCNC(=O)[C@H]1O[C@@H](n2cnc3c(NCC(c4ccccc4)c4ccccc4)nc(C(=O)N4CC[C@H](NC(=O)NCCN(C(C)C)C(C)C)C4)nc32)[C@H](O)[C@@H]1O [Example 29],< 100 nM
4,CCNC(=O)[C@H]1O[C@@H](n2cnc3c(NCC(c4ccccc4)c4ccccc4)nc(C(=O)N4CC[C@@H](NC(=O)NCCN(C(C)C)C(C)C)C4)nc32)[C@H](O)[C@@H]1O [Example 28],< 100 nM
5,"CCNC(=O)[C@H]1O[C@@H](n2cnc3c(NCC(c4ccccc4)c4ccccc4)nc(C(=O)NCCNC(=O)NC4CCN(c5ccccn5)CC4)nc32)[C@H](O)[C@@H]1O [Example 8, 6-[(2,2-Diphenylethyl)amino]-9-{(2R,3R,4S,5S)-5-[(ethylamino)carbonyl]-3,4-dihydroxytetrahydro-2-furanyl}-N-{2-[({[1-(2-pyridinyl)-4-piperidinyl]amino}carbonyl)amino]ethyl}-9H-purine-2-carboxamide]",< 100 nM
6,CC(C)N(CCNC(=O)NCCNC(=O)c1nc(NCC(c2ccccc2)c2ccccc2)c2ncn([C@@H]3O[C@H](CO)[C@@H](O)[C@H]3O)c2n1)C(C)C [Example 4],< 100 nM
7,CCNC(=O)[C@H]1O[C@@H](n2cnc3c(NCC(c4ccccc4)c4ccccc4)nc(C(=O)N[C@@H]4CCN(C(=O)NCCN(C(C)C)C(C)C)C4)nc32)[C@H](O)[C@@H]1O [Example 23],< 100 nM
8,"CCNC(=O)[C@H]1O[C@@H](n2cnc3c(NCC(c4ccccc4)c4ccccc4)nc(C(=O)NCCNC(=O)NCCN4CCC(C(C)C)CC4)nc32)[C@H](O)[C@@H]1O [Example 5, 6-[(2,2-Diphenylethyl)amino]-9-{(2R,3R,4S,5S)-5-[(ethylamino)carbonyl]-3,4-dihydroxytetrahydro-2-furanyl}-N-{2-[({[2-(4-isopropyl-1-piperidinyl)ethyl]amino}carbonyl)amino]ethyl}-9H-purine-2-carboxamide]",< 100 nM
9,CCNC(=O)[C@H]1O[C@@H](n2cnc3c(NCC(c4ccccc4)c4ccccc4)nc(C(=O)NCCCNC(=O)NCCN4CCCCC4)nc32)[C@H](O)[C@@H]1O [Example 18],< 100 nM
10,"CCNC(=O)[C@H]1O[C@@H](n2cnc3c(NCC(c4cccc(Cl)c4)c4cccc(Cl)c4)nc(C(=O)NCCNC(=O)NCCN4CCCCC4)nc32)[C@H](O)[C@@H]1O [Example 32, 6-{[2,2-Bis(3-chlorophenyl)ethyl]amino}-9-{(2R,3R,4S,5S)-5-[(ethylamino)carbonyl]-3,4-dihydroxytetrahydro-2-furanyl}-N-{2-[({[2-(1-piperidinyl)ethyl]amino}carbonyl)amino]ethyl}-9H-purine-2-carboxamide]",< 100 nM
11,CCNC(=O)[C@H]1O[C@@H](n2cnc3c(NCC(c4ccccc4)c4ccccc4)nc(C(=O)N[C@@H]4CCN(C(=O)NCc5ccccc5)C4)nc32)[C@H](O)[C@@H]1O [Example 24],< 100 nM
12,"CCNC(=O)[C@H]1O[C@@H](n2cnc3c(NCC(c4ccccc4)c4ccccc4)nc(C(=O)NCCNC(=O)NCc4ccc(C(=O)O)cc4)nc32)[C@H](O)[C@@H]1O [Example 34, 4-[({[(2-{[(6-[(2,2-diphenylethyl)amino]-9-{(2R,3R,4S,5S)-5-[(ethylamino)carbonyl]-3,4-dihydroxytetrahydro-2-furanyl}-9H-purine-2-yl)carbonyl]amino}ethyl)amino]carbonyl}-amino)methyl]benzoic acid]",< 100 nM
13,CCNC(=O)[C@H]1O[C@@H](n2cnc3c(NCC(c4ccccc4)c4ccccc4)nc(C(=O)NCCCNC(=O)NCCN(C(C)C)C(C)C)nc32)[C@H](O)[C@@H]1O [Example 19],< 100 nM
14,CCNC(=O)[C@H]1O[C@@H](n2cnc3c(NCC(c4cccc(C)c4)c4cccc(C)c4)nc(C(=O)NCCNC(=O)NCCN4CCCCC4)nc32)[C@H](O)[C@@H]1O [Example 33],< 100 nM
15,CCNC(=O)[C@H]1O[C@@H](n2cnc3c(NCC(c4cccc(Cl)c4)c4cccc(Cl)c4)nc(C(=O)NCCNC(=O)NCCN(C(C)C)C(C)C)nc32)[C@H](O)[C@@H]1O [Example 31],< 100 nM
16,CCNC(=O)[C@H]1O[C@@H](n2cnc3c(NCC(c4ccccc4)c4ccccc4)nc(C(=O)NCCNC(=O)NCc4ccccc4)nc32)[C@H](O)[C@@H]1O [Example 13],< 100 nM
17,CCNC(=O)[C@H]1O[C@@H](n2cnc3c(NCC(c4ccccc4)c4ccccc4)nc(C(=O)NC4CCN(C(=O)NCCN(C(C)C)C(C)C)CC4)nc32)[C@H](O)[C@@H]1O [Example 22],< 100 nM

row,Compound,IC50
1,CCNC(=O)[C@H]1O[C@@H](n2cnc3c(NCC(c4ccccc4)c4ccccc4)nc(C(=O)NCCNC(=O)NC4CCN(Cc5ccccc5)CC4)nc32)[C@H](O)[C@@H]1O [Example 10],< 100 nM
2,CCNC(=O)[C@H]1O[C@@H](n2cnc3c(NCC(c4ccccc4)c4ccccc4)nc(C(=O)NCCNC(=O)NCCc4ccccc4)nc32)[C@H](O)[C@@H]1O [Example 14],< 100 nM
3,CCNC(=O)[C@H]1O[C@@H](n2cnc3c(NCC(c4ccccc4)c4ccccc4)nc(C(=O)N[C@@H]4CCN(C(=O)NCCc5ccccc5)C4)nc32)[C@H](O)[C@@H]1O [Example 26],< 100 nM
4,"CCNC(=O)[C@H]1O[C@@H](n2cnc3c(NCC(c4ccccc4)c4ccccc4)nc(C(=O)NCCNC(=O)NCCN4CCCCC4)nc32)[C@H](O)[C@@H]1O [Example 1, 6-[(2,2-Diphenylethyl)amino]-9-{(2R,3R,4S,5S)-5-[(ethylamino)carbonyl]-3,4-dihydroxytetrahydro-2-furanyl}-N-{2-[({[2-(1-piperidinyl)ethyl]amino}carbonyl)amino]ethyl}-9H-purine-2-carboxamide]",< 100 nM
5,CCNC(=O)[C@H]1O[C@@H](n2cnc3c(NCC(c4ccccc4)c4ccccc4)nc(C(=O)NCCNC(=O)NC4CCCCC4)nc32)[C@H](O)[C@@H]1O [Example 15],< 100 nM
6,"CCNC(=O)[C@H]1O[C@@H](n2cnc3c(NCC(c4ccccc4)c4ccccc4)nc(C(=O)NCCNC(=O)NCCN(C(C)C)C4CCCC4)nc32)[C@H](O)[C@@H]1O [Example 6, N-(2-{[({2-[Cycopentyl(isopropyl)amino]ethyl}amino)carbonyl]amino}ethyl)-6-[(2,2-diphenylethyl)amino]-9-{(2R,3R,4S,5S)-5-[(ethylamino)carbonyl]-3,4-dihydroxytetrahydro-2-furanyl}-9H-purine-2-carboxamide]",< 100 nM
7,CCNC(=O)[C@H]1O[C@@H](n2cnc3c(NCC(c4ccccc4)c4ccccc4)nc(C(=O)N[C@H]4CC[C@H](NC(=O)NCCN(C(C)C)C(C)C)CC4)nc32)[C@H](O)[C@@H]1O [Example 21],< 100 nM
8,"O=C(NCCNC(=O)c1nc(NCC(c2ccccc2)c2ccccc2)c2ncn([C@@H]3O[C@H](CO)[C@@H](O)[C@H]3O)c2n1)NCCN1CCCCC1 [Example 3, 9-[(2R,3R,4S,5R)-3,4-Dihydroxy-5-(hydroxymethyl)tetrahydro-2-furanyl]-6-[(2,2-diphenylethyl)amino]-N-{2-[({[2-(1-piperidinyl)ethyl]amino}carbonyl)amino]ethyl}-9H-purine-2-carboxamide]",< 100 nM
9,CCCCN(CCCC)CCNC(=O)NCCNC(=O)c1nc(NCC(c2ccccc2)c2ccccc2)c2ncn([C@@H]3O[C@H](C(=O)NCC)[C@@H](O)[C@H]3O)c2n1 [Example 9],< 100 nM
10,CCNC(=O)[C@H]1O[C@@H](n2cnc3c(NCC(c4ccccc4)c4ccccc4)nc(C(=O)NCCNC(=O)NCCN(C(C)C)C(C)C)nc32)[C@H](O)[C@@H]1O [Example 2],< 100 nM
11,CCNC(=O)[C@H]1O[C@@H](n2cnc3c(NCC(c4ccccc4)c4ccccc4)nc(C(=O)N[C@@H]4CCN(C(=O)NC5CCN(c6ccccn6)CC5)C4)nc32)[C@H](O)[C@@H]1O [Example 27],< 100 nM
12,CCNC(=O)[C@H]1O[C@@H](n2cnc3c(NCC(c4ccccc4)c4ccccc4)nc(C(=O)N4CCC(NC(=O)NCc5ccccc5)CC4)nc32)[C@H](O)[C@@H]1O [Example 25],< 100 nM
13,CCNC(=O)[C@H]1O[C@@H](n2cnc3c(NCC(c4ccccc4)c4ccccc4)nc(C(=O)NCCNC(=O)NCCN(Cc4ccccc4)C(C)C)nc32)[C@H](O)[C@@H]1O [Example 11],< 100 nM
14,CCNC(=O)[C@H]1O[C@@H](n2cnc3c(NCC(c4ccccc4)c4ccccc4)nc(C(=O)NCCNC(=O)NCC4CCN(Cc5ccccc5)CC4)nc32)[C@H](O)[C@@H]1O [Example 12],< 100 nM
15,CCNC(=O)[C@H]1O[C@@H](n2cnc3c(NCC(c4ccccc4)c4ccccc4)nc(C(=O)NCCNC(=O)NCCN4CCc5ccccc5C4)nc32)[C@H](O)[C@@H]1O [Example 16],< 100 nM
16,CCNC(=O)[C@H]1O[C@@H](n2cnc3c(NCC(c4ccccc4)c4ccccc4)nc(C(=O)N[C@H]4CC[C@H](NC(=O)NCCN5CCCCC5)CC4)nc32)[C@H](O)[C@@H]1O [Example 20],< 100 nM
